Laboratory results published in PubChem BioAssay (NCI).
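Growth conditions: 96-well plates. Treatment: test compound, 48 hours, 5 concentrations. Analysis: linear interpolation between bracketing concentrations; unreached endpoints set to highest concentration. GI50 is the concentration that inhibits growth by half. TGI: total growth inhibition.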

Key:
Assay in all cases: NCI anticancer screen, dose series, 48 h
786-0 renal = tested on: 786-0 renal
A498 renal = tested on: A498 renal
A549 NSCLC = tested on: A549 NSCLC
ACHN renal = tested on: ACHN renal
BT-549 breast = tested on: BT-549 breast
CAKI-1 renal = tested on: CAKI-1 renal
CCRF-CEM leukemia = tested on: CCRF-CEM leukemia
COLO 205 colon = tested on: COLO 205 colon
DU-145 prostate = tested on: DU-145 prostate
EKVX NSCLC = tested on: EKVX NSCLC
HCC-2998 colon = tested on: HCC-2998 colon
HCT-116 colon = tested on: HCT-116 colon
HCT-15 colon = tested on: HCT-15 colon
HL-60(TB) leukemia = tested on: HL-60(TB) leukemia
HOP-62 NSCLC = tested on: HOP-62 NSCLC
HOP-92 NSCLC = tested on: HOP-92 NSCLC
HS 578T breast = tested on: HS 578T breast
HT29 colon = tested on: HT29 colon
K-562 leukemia = tested on: K-562 leukemia
KM12 colon = tested on: KM12 colon
LOX IMVI melanoma = tested on: LOX IMVI melanoma
M14 melanoma = tested on: M14 melanoma
MALME-3M melanoma = tested on: MALME-3M melanoma
MCF7 breast = tested on: MCF7 breast
MDA-MB-231 breast = tested on: MDA-MB-231 breast
MDA-MB-435 = tested on: MDA-MB-435
MOLT-4 leukemia = tested on: MOLT-4 leukemia
NCI-H226 lung = tested on: NCI-H226 lung
NCI-H23 lung = tested on: NCI-H23 lung
NCI-H460 lung = tested on: NCI-H460 lung
NCI-H522 lung = tested on: NCI-H522 lung
NCI/ADR-RES ovarian = tested on: NCI/ADR-RES ovarian
OVCAR-3 ovarian = tested on: OVCAR-3 ovarian
OVCAR-4 ovarian = tested on: OVCAR-4 ovarian
OVCAR-5 ovarian = tested on: OVCAR-5 ovarian
OVCAR-8 ovarian = tested on: OVCAR-8 ovarian
PC-3 prostate = tested on: PC-3 prostate
RXF 393 renal = tested on: RXF 393 renal
SF-268 CNS = tested on: SF-268 CNS
SF-295 CNS = tested on: SF-295 CNS
SF-539 CNS = tested on: SF-539 CNS
SK-MEL-2 melanoma = tested on: SK-MEL-2 melanoma
SK-MEL-28 melanoma = tested on: SK-MEL-28 melanoma
SK-MEL-5 melanoma = tested on: SK-MEL-5 melanoma
SK-OV-3 ovarian = tested on: SK-OV-3 ovarian
SN12C renal = tested on: SN12C renal
SNB-19 CNS = tested on: SNB-19 CNS
SNB-75 CNS = tested on: SNB-75 CNS
SR leukemia = tested on: SR leukemia
SW-620 colon = tested on: SW-620 colon
T-47D breast = tested on: T-47D breast
TK-10 renal = tested on: TK-10 renal
U251 CNS = tested on: U251 CNS
UACC-257 melanoma = tested on: UACC-257 melanoma
UACC-62 melanoma = tested on: UACC-62 melanoma
UO-31 renal = tested on: UO-31 renal
IGROV1 ovarian = tested on: IGROV1 ovarian

O=C(c1ccco1)N(Cc1cccnc1)C(=S)N(Cc1cccnc1)C(=O)c1ccco1
TGI (786-0 renal): 11.8 µM | TGI (A498 renal): 62.7 µM | TGI (A549 NSCLC): 38.8 µM | TGI (ACHN renal): 30.7 µM | TGI (BT-549 breast): 66.2 µM | TGI (CAKI-1 renal): 45.4 µM | TGI (CCRF-CEM leukemia): 14.5 µM | TGI (COLO 205 colon): 16.3 µM | TGI (DU-145 prostate): > 100 µM | TGI (EKVX NSCLC): 35.8 µM | TGI (HCC-2998 colon): 31.8 µM | TGI (HCT-116 colon): 20.6 µM | TGI (HCT-15 colon): 77.7 µM | TGI (HL-60(TB) leukemia): 49 µM | TGI (HOP-62 NSCLC): 44.1 µM | TGI (HOP-92 NSCLC): 38.7 µM | TGI (HS 578T breast): 56.4 µM | TGI (HT29 colon): 44.3 µM | TGI (K-562 leukemia): > 100 µM | TGI (KM12 colon): 23.4 µM | TGI (LOX IMVI melanoma): 27.8 µM | TGI (M14 melanoma): 27 µM | TGI (MALME-3M melanoma): 32.7 µM | TGI (MCF7 breast): 14.7 µM | TGI (MDA-MB-231 breast): 22.6 µM | TGI (MDA-MB-435): 38.7 µM | TGI (MOLT-4 leukemia): > 100 µM | TGI (NCI-H226 lung): 47.9 µM | TGI (NCI-H23 lung): 61.6 µM | TGI (NCI-H460 lung): 55.6 µM | TGI (NCI-H522 lung): 29.9 µM | TGI (NCI/ADR-RES ovarian): > 100 µM | TGI (OVCAR-3 ovarian): 23.4 µM | TGI (OVCAR-4 ovarian): 50 µM | TGI (OVCAR-5 ovarian): 46.9 µM | TGI (OVCAR-8 ovarian): 66 µM | TGI (PC-3 prostate): 19.7 µM | TGI (RXF 393 renal): 57.4 µM | TGI (SF-268 CNS): 43.6 µM | TGI (SF-295 CNS): 77.1 µM | TGI (SF-539 CNS): 26.7 µM | TGI (SK-MEL-2 melanoma): 28.1 µM | TGI (SK-MEL-28 melanoma): 45.8 µM | TGI (SK-MEL-5 melanoma): 29.1 µM | TGI (SK-OV-3 ovarian): 83.8 µM | TGI (SN12C renal): 24 µM | TGI (SNB-19 CNS): 83.5 µM | TGI (SNB-75 CNS): 98.7 µM | TGI (SR leukemia): > 100 µM | TGI (SW-620 colon): 36.5 µM | TGI (T-47D breast): 63.2 µM | TGI (TK-10 renal): 23.3 µM | TGI (U251 CNS): 31.4 µM | TGI (UACC-257 melanoma): 31.7 µM | TGI (UACC-62 melanoma): 29.7 µM | TGI (UO-31 renal): 28.8 µM

C/C=C(/C(=C/C)c1ccc(O)cc1)c1ccc(O)cc1
GI50 (786-0 renal): 5.54 µM | TGI (786-0 renal): 27 µM | GI50 (A498 renal): 6.22 µM | TGI (A498 renal): 19.3 µM | GI50 (A549 NSCLC): 4.04 µM | TGI (A549 NSCLC): 19 µM | GI50 (ACHN renal): 9.64 µM | TGI (ACHN renal): 21.4 µM | GI50 (BT-549 breast): 7.39 µM | TGI (BT-549 breast): 22.5 µM | GI50 (CAKI-1 renal): 3.42 µM | TGI (CAKI-1 renal): 16.9 µM | GI50 (COLO 205 colon): 3.25 µM | TGI (COLO 205 colon): 10.5 µM | GI50 (DU-145 prostate): 3.35 µM | TGI (DU-145 prostate): 10.4 µM | GI50 (EKVX NSCLC): 7.38 µM | TGI (EKVX NSCLC): 26.7 µM | GI50 (HCC-2998 colon): 8.64 µM | TGI (HCC-2998 colon): 24 µM | GI50 (HCT-116 colon): 4.58 µM | TGI (HCT-116 colon): 16.2 µM | GI50 (HCT-15 colon): 5.47 µM | TGI (HCT-15 colon): 20.3 µM | GI50 (HL-60(TB) leukemia): 3.9 µM | TGI (HL-60(TB) leukemia): 25.1 µM | GI50 (HOP-62 NSCLC): 3.62 µM | TGI (HOP-62 NSCLC): 16 µM | GI50 (HOP-92 NSCLC): 3.98 µM | TGI (HOP-92 NSCLC): 22.7 µM | GI50 (HS 578T breast): 4.3 µM | TGI (HS 578T breast): 30.2 µM | GI50 (HT29 colon): 3.71 µM | TGI (HT29 colon): 12.6 µM | GI50 (IGROV1 ovarian): 5.41 µM | TGI (IGROV1 ovarian): 36.8 µM | GI50 (KM12 colon): 3.73 µM | TGI (KM12 colon): 13.6 µM | GI50 (LOX IMVI melanoma): 5.51 µM | TGI (LOX IMVI melanoma): 24.3 µM | GI50 (M14 melanoma): 3.33 µM | TGI (M14 melanoma): 12.5 µM | GI50 (MALME-3M melanoma): 7.07 µM | TGI (MALME-3M melanoma): 31 µM | GI50 (MCF7 breast): 7.19 µM | TGI (MCF7 breast): 26.1 µM | GI50 (MDA-MB-231 breast): 4.58 µM | TGI (MDA-MB-231 breast): 22.2 µM | GI50 (MDA-MB-435): 1.19 µM | TGI (MDA-MB-435): 3.56 µM | GI50 (MOLT-4 leukemia): 5.43 µM | TGI (MOLT-4 leukemia): 24.2 µM | GI50 (NCI-H226 lung): 9.36 µM | TGI (NCI-H226 lung): 47 µM | GI50 (NCI-H23 lung): 5.3 µM | TGI (NCI-H23 lung): 21.9 µM | GI50 (NCI-H460 lung): 3.44 µM | TGI (NCI-H460 lung): 13.2 µM | GI50 (NCI-H522 lung): 3.63 µM | TGI (NCI-H522 lung): 16.9 µM | GI50 (NCI/ADR-RES ovarian): 2.81 µM | TGI (NCI/ADR-RES ovarian): 9.28 µM | GI50 (OVCAR-3 ovarian): 2.37 µM | TGI (OVCAR-3 ovarian): 5.38 µM | GI50 (OVCAR-4 ovarian): 8.18 µM | TGI (OVCAR-4 ovarian): 33.6 µM | GI50 (OVCAR-5 ovarian): 8.38 µM | TGI (OVCAR-5 ovarian): 23.2 µM | GI50 (OVCAR-8 ovarian): 4.65 µM | TGI (OVCAR-8 ovarian): 25.4 µM | GI50 (PC-3 prostate): 4.51 µM | TGI (PC-3 prostate): 17.4 µM | GI50 (RXF 393 renal): 4.03 µM | TGI (RXF 393 renal): 17.7 µM | GI50 (SF-268 CNS): 6.32 µM | TGI (SF-268 CNS): 22.8 µM | GI50 (SF-295 CNS): 2.48 µM | TGI (SF-295 CNS): 8.11 µM | GI50 (SF-539 CNS): 3.27 µM | TGI (SF-539 CNS): 13.8 µM | GI50 (SK-MEL-2 melanoma): 8.4 µM | TGI (SK-MEL-2 melanoma): 30.7 µM | GI50 (SK-MEL-28 melanoma): 5.71 µM | TGI (SK-MEL-28 melanoma): 21.1 µM | GI50 (SK-MEL-5 melanoma): 3.56 µM | TGI (SK-MEL-5 melanoma): 15.2 µM | GI50 (SK-OV-3 ovarian): 2.54 µM | TGI (SK-OV-3 ovarian): 8.88 µM | GI50 (SN12C renal): 5.22 µM | TGI (SN12C renal): 22.9 µM | GI50 (SNB-19 CNS): 4.79 µM | TGI (SNB-19 CNS): 21 µM | GI50 (SNB-75 CNS): 1.9 µM | TGI (SNB-75 CNS): 5.34 µM | GI50 (SR leukemia): 4.24 µM | TGI (SR leukemia): 92.9 µM | GI50 (SW-620 colon): 3.85 µM | TGI (SW-620 colon): 14.9 µM | GI50 (T-47D breast): 5.11 µM | TGI (T-47D breast): 21.9 µM | GI50 (TK-10 renal): 12.8 µM | TGI (TK-10 renal): 29.4 µM | GI50 (U251 CNS): 3.49 µM | TGI (U251 CNS): 15.9 µM | GI50 (UACC-257 melanoma): 9.4 µM | TGI (UACC-257 melanoma): 24.8 µM | GI50 (UACC-62 melanoma): 4.86 µM | TGI (UACC-62 melanoma): 18.7 µM | GI50 (UO-31 renal): 5.34 µM | TGI (UO-31 renal): 24.9 µM
